The values below come from patent publication US8703701B2 (Indiana University Research and Technology Corporation, priority 2009, dated 2014).

As usually defined, the EC50 is the concentration giving half of the maximal effect.

Starred links: 1 amine or outer side, 2 acyl side, 3 side chain; linkers in the order of their positions; H or OH if unused. Non-standard residues stand in square brackets, D forms with d. Residues, ends and D or L forms follow the SMILES beside them. Groups on a side chain read outwards from the residue. *: point of attachment. γGlu = O=C(O)[C@H](CCC(=O)[*:2])N[*:1]; Palmitoyl = CCCCCCCCCCCCCCCC(=O)*; Aib = CC(C)(N)C(=O)O

The target in assay [1] is T1, glucagon receptor (Homo sapiens, UniProt P47871).
T1 construct: expressed in transfected cells; host or cells: HEK293
T1 sequence (P47871 26-477): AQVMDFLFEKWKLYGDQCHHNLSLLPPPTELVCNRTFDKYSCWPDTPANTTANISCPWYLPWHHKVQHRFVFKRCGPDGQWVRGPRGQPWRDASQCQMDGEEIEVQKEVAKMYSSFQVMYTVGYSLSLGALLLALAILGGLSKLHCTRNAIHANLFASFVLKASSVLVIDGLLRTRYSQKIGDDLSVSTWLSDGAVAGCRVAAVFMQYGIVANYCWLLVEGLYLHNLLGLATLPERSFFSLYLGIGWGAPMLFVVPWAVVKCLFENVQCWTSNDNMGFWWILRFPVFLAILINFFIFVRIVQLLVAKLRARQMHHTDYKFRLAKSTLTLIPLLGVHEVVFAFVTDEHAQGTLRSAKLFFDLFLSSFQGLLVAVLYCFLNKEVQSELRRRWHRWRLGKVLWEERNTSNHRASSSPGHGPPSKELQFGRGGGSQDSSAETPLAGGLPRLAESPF
Nature of the assay: cAMP induction, firefly luciferase reporter assay, glucagon receptor. It is filed as cell-based. The conditions noted are these: compared to native glucagon. Here is the method:
(§1) The ability of each peptide to induce cAMP was measured in a firefly luciferase-based reporter assay.
(§2) At the end of the incubation, 100 μL of LucLite luminescence substrate reagent (Perkin Elmer, Wellesley, Mass.) were added to each well. The plate was shaken briefly, incubated 10 min in the dark and light output was measured on MicroBeta-1450 liquid scintillation counter (Perkin-Elmer, Wellesley, Mass.).
A general note: In a reporter assay the amount or activity of a reporter protein is the signal.

Assay [2] addresses T2, GLP-1 receptor (Homo sapiens, UniProt P43220).
T2 construct: expressed in transfected cells; host or cells: HEK293
Nature of the assay: cAMP induction, firefly luciferase reporter assay, GLP-1 receptor. Type of assay: cell-based. As to conditions: for Activity at GLP-1 Receptor % Relative Activity: compared to native GLP-1. Here is the method:
as §1, §2

[3] abbreviates: EC50 (nM) at GLP-1 Receptor, Table 7B.

T2 sequence (P43220 24-463): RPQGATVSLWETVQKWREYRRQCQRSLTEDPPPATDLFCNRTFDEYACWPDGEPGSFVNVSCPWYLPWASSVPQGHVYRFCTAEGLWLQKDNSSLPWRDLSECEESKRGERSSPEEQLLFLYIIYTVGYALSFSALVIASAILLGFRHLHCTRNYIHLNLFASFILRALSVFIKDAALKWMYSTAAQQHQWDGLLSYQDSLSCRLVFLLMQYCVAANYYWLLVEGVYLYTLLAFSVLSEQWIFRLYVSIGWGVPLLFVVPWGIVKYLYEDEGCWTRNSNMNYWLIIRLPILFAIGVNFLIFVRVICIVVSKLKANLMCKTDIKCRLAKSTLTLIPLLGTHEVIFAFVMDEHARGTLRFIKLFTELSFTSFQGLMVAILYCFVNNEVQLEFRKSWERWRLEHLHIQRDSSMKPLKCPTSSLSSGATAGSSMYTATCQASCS

Take `CC(C)C[C@H](NC(=O)[C@H](CC(C)C)NC(=O)[C@H](Cc1c[nH]c2ccccc12)NC(=O)[C@H](CS)NC(=O)[C@@H](NC(=O)[C@H](Cc1ccccc1)NC(=O)[C@H](CCC(=O)O)NC(=O)[C@H](CCCCN)NC(=O)[C@H](C)NC(=O)[C@H](CCCNC(=N)N)NC(=O)[C@H](CCCCN)NC(=O)[C@H](CCC(=O)O)NC(=O)[C@H](CC(=O)O)NC(=O)[C@H](CC(C)C)NC(=O)[C@H](Cc1ccc(O)cc1)NC(=O)[C@H](CCCCN)NC(=O)[C@H](CO)NC(=O)[C@H](Cc1ccc(O)cc1)NC(=O)[C@H](CC(=O)O)NC(=O)[C@H](CO)NC(=O)[C@@H](NC(=O)[C@H](Cc1ccccc1)NC(=O)[C@@H](NC(=O)CNC(=O)[C@H](CCC(N)=O)NC(=O)[C@@H](CO)NC(=O)[C@@H](N)Cc1c[nH]cn1)[C@@H](C)O)[C@@H](C)O)C(C)C)C(=O)N[C@@H](CC(=O)O)C(=O)NCC(=O)NCC(=O)N1CCC[C@H]1C(=O)N[C@@H](CO)C(=O)N[C@@H](CO)C(=O)NCC(=O)N[C@@H](C)C(=O)N1CCC[C@H]1C(=O)N1CCC[C@H]1C(=O)N1CCC[C@H]1C(=O)N[C@@H](CO)C(N)=O` [compound 61] (H-H[dS]QGTFTSDYSKYLDEKRAKEFVCWLLDGGPSSGAPPPS-NH2; N-terminus assumed): the “Activity at Glucagon Receptor % Relative Activity” value in assay [1] (Table 2B) came to 88%. Moreover, the “Activity at GLP-1 Receptor % Relative Activity” value in assay [2] (Table 2B) is 39%. Consider `CC(C)C[C@H](NC(=O)[C@H](Cc1c[nH]c2ccccc12)NC(=O)[C@H](CS)NC(=O)[C@@H](NC(=O)[C@H](Cc1ccccc1)NC(=O)[C@H](CCC(=O)O)NC(=O)[C@H](CCCCN)NC(=O)[C@H](C)NC(=O)[C@H](C)NC(=O)[C@H](CCCCN)NC(=O)C(C)(C)NC(=O)[C@H](CC(=O)O)NC(=O)[C@H](CC(C)C)NC(=O)[C@H](Cc1ccc(O)cc1)NC(=O)[C@H](CCCCN)NC(=O)[C@H](CO)NC(=O)[C@H](Cc1ccc(O)cc1)NC(=O)[C@H](CC(=O)O)NC(=O)[C@H](CO)NC(=O)[C@@H](NC(=O)[C@H](Cc1ccccc1)NC(=O)[C@@H](NC(=O)CNC(=O)[C@H](CCC(N)=O)NC(=O)C(C)(C)NC(=O)[C@@H](N)Cc1c[nH]cn1)[C@@H](C)O)[C@@H](C)O)C(C)C)C(=O)N[C@@H](CC(C)C)C(=O)N[C@@H](CC(=O)O)C(=O)N[C@H](C(N)=O)[C@@H](C)O` [compound 64] (H-H[Aib]QGTFTSDYSKYLD[Aib]KAAKEFVCWLLDT-NH2; N-terminus assumed), for which, in assay [1] (Table 2B), the “Activity at Glucagon Receptor % Relative Activity” value is reported as 79%. Also, a half-maximal response in assay [2] (Activity at GLP-1 Receptor EC50 (nM), Table 2B) (EC50) required 0.012 nM. In addition, the “Activity at GLP-1 Receptor % Relative Activity” value in assay [2] (Table 2B) is listed as 308%. In turn, `CCCCCCCCCCCCCCCC(=O)N[C@@H](CCC(=O)NCCCC[C@H](NC(=O)[C@H](CC(=O)O)NC(=O)[C@H](CO)NC(=O)[C@@H](NC(=O)[C@H](Cc1ccccc1)NC(=O)[C@@H](NC(=O)CNC(=O)[C@H](CCC(N)=O)NC(=O)C(C)(C)NC(=O)[C@@H](N)Cc1c[nH]cn1)[C@@H](C)O)[C@@H](C)O)C(=O)N[C@@H](CO)C(=O)N[C@@H](CCCCN)C(=O)N[C@@H](Cc1ccc(O)cc1)C(=O)N[C@@H](CC(C)C)C(=O)N[C@@H](CC(=O)O)C(=O)N[C@@H](CCC(=O)O)C(=O)N[C@@H](CCC(=O)O)C(=O)N[C@@H](C)C(=O)N[C@H](C(=O)N[C@@H](CCCNC(=N)N)C(=O)N[C@@H](CC(C)C)C(=O)N[C@@H](Cc1ccccc1)C(=O)N[C@H](C(=O)N[C@@H](CCC(=O)O)C(=O)N[C@@H](Cc1c[nH]c2ccccc12)C(=O)N[C@@H](CC(C)C)C(=O)N[C@@H](CCSC)C(=O)N[C@@H](CC(N)=O)C(=O)N[C@H](C(N)=O)[C@@H](C)O)[C@@H](C)CC)C(C)C)C(=O)O` [compound 38] (H-H[Aib]QGTFTSDK([γGlu-Palmitoyl])SKYLDEEAVRLFIEWLMNT-NH2; N-terminus assumed) gave a 50% effective concentration (EC50) in assay [2] (setting [3]) of 0.019 nM. The compound `CCCCCCCCCCCCCCCC(=O)NCCCC[C@H](NC(=O)[C@H](CC(=O)O)NC(=O)[C@H](CO)NC(=O)[C@@H](NC(=O)[C@H](Cc1ccccc1)NC(=O)[C@@H](NC(=O)CNC(=O)[C@H](CCC(N)=O)NC(=O)C(C)(C)NC(=O)[C@@H](N)Cc1c[nH]cn1)[C@@H](C)O)[C@@H](C)O)C(=O)N[C@@H](CO)C(=O)N[C@@H](CCCCN)C(=O)N[C@@H](Cc1ccc(O)cc1)C(=O)N[C@@H](CC(C)C)C(=O)N[C@@H](CC(=O)O)C(=O)N[C@@H](CCC(=O)O)C(=O)N[C@@H](CCC(=O)O)C(=O)N[C@@H](C)C(=O)N[C@H](C(=O)N[C@@H](CCCNC(=N)N)C(=O)N[C@@H](CC(C)C)C(=O)N[C@@H](Cc1ccccc1)C(=O)N[C@H](C(=O)N[C@@H](CCC(=O)O)C(=O)N[C@@H](Cc1c[nH]c2ccccc12)C(=O)N[C@@H](CC(C)C)C(=O)N[C@@H](CCSC)C(=O)N[C@@H](CC(N)=O)C(=O)N[C@H](C(N)=O)[C@@H](C)O)[C@@H](C)CC)C(C)C` [compound 40] (H-H[Aib]QGTFTSDK(Palmitoyl)SKYLDEEAVRLFIEWLMNT-NH2; N-terminus assumed) returned an EC50 in assay [2] (setting [3]) of 0.024 nM. Regarding `CSCC[C@H](NC(=O)[C@H](CC(C)C)NC(=O)[C@H](Cc1c[nH]c2ccccc12)NC(=O)[C@H](CCC(N)=O)NC(=O)[C@@H](NC(=O)[C@H](Cc1ccccc1)NC(=O)[C@H](CCC(=O)O)NC(=O)[C@H](CCC(N)=O)NC(=O)[C@H](C)NC(=O)[C@H](CCCNC(=N)N)NC(=O)[C@H](CCCCN)NC(=O)[C@H](CO)NC(=O)[C@H](CC(=O)O)NC(=O)[C@H](CC(C)C)NC(=O)[C@H](Cc1ccc(O)cc1)NC(=O)[C@H](CCCCN)NC(=O)[C@H](CO)NC(=O)[C@H](Cc1ccc(O)cc1)NC(=O)[C@H](CC(=O)O)NC(=O)[C@H](CO)NC(=O)[C@@H](NC(=O)[C@H](Cc1ccccc1)NC(=O)[C@@H](NC(=O)CNC(=O)[C@H](CCC(N)=O)NC(=O)[C@H](CO)NC(=O)[C@@H](N)Cc1c[nH]cn1)[C@@H](C)O)[C@@H](C)O)C(C)C)C(=O)N[C@@H](CC(N)=O)C(=O)N[C@H](C(N)=O)[C@@H](C)O` [Peptide 1], the response in assay [2] (GLP-1 Receptor EC50 (nM), Table 1, HEK293 cells co-transfected with receptor and CRE-luciferase) was half-maximal at 0.13 nM (EC50). This counts as sub-nanomolar. `CSCC[C@H](NC(=O)[C@H](CC(C)C)NC(=O)[C@H](Cc1c[nH]c2ccccc12)NC(=O)[C@H](CCC(N)=O)NC(=O)[C@@H](NC(=O)[C@H](Cc1ccccc1)NC(=O)[C@H](CCC(=O)O)NC(=O)[C@H](CCCCN)NC(=O)[C@H](C)NC(=O)[C@H](CCCNC(=N)N)NC(=O)[C@H](CCCCN)NC(=O)C(C)(C)NC(=O)[C@H](CC(=O)O)NC(=O)[C@H](CC(C)C)NC(=O)[C@H](Cc1ccc(O)cc1)NC(=O)[C@H](CCCCN)NC(=O)[C@H](CO)NC(=O)[C@H](Cc1ccc(O)cc1)NC(=O)[C@H](CC(=O)O)NC(=O)[C@H](CO)NC(=O)[C@@H](NC(=O)[C@H](Cc1ccccc1)NC(=O)[C@@H](NC(=O)CNC(=O)[C@H](CCC(N)=O)NC(=O)[C@@H](CO)NC(=O)[C@@H](N)Cc1c[nH]cn1)[C@@H](C)O)[C@@H](C)O)C(C)C)C(=O)N[C@@H](CC(N)=O)C(=O)N[C@H](C(N)=O)[C@@H](C)O` [compound 21] gave an EC50 in assay [2] (Activity at GLP-1 Receptor EC50 (nM), Table 2A) of 0.048 nM. Regarding `CCCCCCCCCCCCCCCC(=O)N[C@@H](CCC(=O)NCCCC[C@H](NC(=O)[C@H](CC(=O)O)NC(=O)[C@H](CO)NC(=O)[C@@H](NC(=O)[C@H](Cc1ccccc1)NC(=O)[C@@H](NC(=O)CNC(=O)[C@H](CCC(N)=O)NC(=O)[C@H](CO)NC(=O)[C@H](Cc1c[nH]cn1)NC(C)=O)[C@@H](C)O)[C@@H](C)O)C(=O)N[C@@H](CO)C(=O)N[C@@H](CCCCN)C(=O)N[C@@H](Cc1ccc(O)cc1)C(=O)N[C@@H](CC(C)C)C(=O)N[C@@H](CC(=O)O)C(=O)N[C@@H](CCC(=O)O)C(=O)N[C@@H](CCC(N)=O)C(=O)N[C@@H](C)C(=O)N[C@@H](C)C(=O)N[C@@H](CCCCN)C(=O)N[C@@H](CCC(=O)O)C(=O)N[C@@H](Cc1ccccc1)C(=O)N[C@H](C(=O)N[C@@H](CS)C(=O)N[C@@H](Cc1c[nH]c2ccccc12)C(=O)N[C@@H](CC(C)C)C(=O)N[C@@H](CC(C)C)C(=O)N[C@@H](CC(=O)O)C(=O)N[C@H](C(N)=O)[C@@H](C)O)[C@@H](C)CC)C(=O)O` [compound 57] (Ac-HSQGTFTSDK([γGlu-Palmitoyl])SKYLDEQAAKEFICWLLDT-NH2), the “Activity at Glucagon Receptor % Relative Activity” value in assay [1] (Table 5) was 1%. As for `CC[C@H](C)[C@H](NC(=O)[C@H](Cc1ccccc1)NC(=O)[C@H](CC(C)C)NC(=O)[C@H](CCCNC(=N)N)NC(=O)[C@@H](NC(=O)[C@H](C)NC(=O)[C@H](CCC(N)=O)NC(=O)[C@H](CCC(=O)O)NC(=O)[C@H](CC(=O)O)NC(=O)[C@H](CC(C)C)NC(=O)[C@H](Cc1ccc(O)cc1)NC(=O)[C@H](CCCCN)NC(=O)[C@H](CO)NC(=O)[C@H](Cc1ccc(O)cc1)NC(=O)[C@H](CC(=O)O)NC(=O)[C@H](CO)NC(=O)[C@@H](NC(=O)[C@H](Cc1ccccc1)NC(=O)[C@@H](NC(=O)CNC(=O)[C@H](CCC(N)=O)NC(=O)[C@@H](CO)NC(=O)[C@@H](N)Cc1c[nH]cn1)[C@@H](C)O)[C@@H](C)O)C(C)C)C(=O)N[C@@H](CS)C(=O)N[C@@H](Cc1c[nH]c2ccccc12)C(=O)N[C@@H](CC(C)C)C(=O)N[C@@H](CC(C)C)C(=O)N[C@@H](CC(=O)O)C(=O)N[C@H](C(N)=O)[C@@H](C)O` [compound 87] (H-H[dS]QGTFTSDYSKYLDEQAVRLFICWLLDT-NH2; N-terminus assumed), a half-maximal effect in assay [2] (setting [3]) (EC50) was put at 0.013 nM.
